Where “and” joins values, the source holds several entries; their conditions need not be identical. Equal entries are not always repeated.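 Assay format: 96-well plates, 48-hour exposure. GI50: concentration for 50% inhibition of growth. TGI marks complete inhibition of growth.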

Some test systems named below: HL-60(TB) leukemia; ACHN renal; MDA-MB-435; OVCAR-4 ovarian; A549 NSCLC; SW-620 colon; RXF 393 renal; NCI-H23 lung; MDA-MB-231 breast; EKVX NSCLC.
Holding throughout (test): inhibition of tumour cell growth, NCI panel, 48 h

With `COc1ccc(S(=O)(=O)Nc2c(/C=C\c3cc(OC)c(OC)c(OC)c3)ccc(OC)c2O)cc1`, the GI50 with HL-60(TB) leukemia is 0.0235 µM; in the assay on ACHN renal, 0.0693 µM; in the assay on MDA-MB-435, 0.019 µM; in the assay on OVCAR-4 ovarian it was 0.0763 µM; with A549 NSCLC, 0.0459 µM; in the assay on SW-620 colon, 0.0408 µM. The GI50 in the assay on RXF 393 renal was 0.0318 µM; with NCI-H23 lung it was 0.052 µM; in the assay on MDA-MB-231 breast, 0.0503 µM. The TGI was 0.0779 µM in the assay with HL-60(TB) leukemia; 70.7 µM in the assay on ACHN renal; 0.0484 µM in the assay on MDA-MB-435; greater than 100 µM in the assay with OVCAR-4 ovarian; greater than 100 µM in the assay with A549 NSCLC; greater than 100 µM in the assay with SW-620 colon. Moreover, the figures for the TGI in the assay with RXF 393 renal, with NCI-H23 lung and in the assay with MDA-MB-231 breast were 21.7 µM, greater than 100 µM and 2.35 µM, respectively.
For the compound `CNC(=O)c1c(F)cccc1Nc1nc(Nc2cc3c(cc2OC)CCN3C(=O)CN(C)C)nc2[nH]ccc12`, the GI50 in the assay with HL-60(TB) leukemia is 0.364 µM; in the assay with ACHN renal, 8.8 µM; in the assay with MDA-MB-435, 1.4 µM; in the assay with OVCAR-4 ovarian, 1.87 µM; with A549 NSCLC, 1.74 µM; in the assay on SW-620 colon it was 1.14 µM. Besides, the GI50 was 1.8 µM in the assay with RXF 393 renal, 13.3 µM in the assay on NCI-H23 lung and 1.9 µM with MDA-MB-231 breast. For the same compound, the TGI in the assay with HL-60(TB) leukemia came to 18.2 µM; in the assay with ACHN renal, 23.1 µM; in the assay on MDA-MB-435, 3.51 µM; with OVCAR-4 ovarian, 3.99 µM; in the assay with A549 NSCLC it was 14.4 µM; in the assay on SW-620 colon, 3.42 µM. Further, the TGI worked out at 3.6 µM with RXF 393 renal, 34 µM with NCI-H23 lung and 4.15 µM in the assay on MDA-MB-231 breast.
With `Oc1ccc2ccccc2c1C=NCc1c(O)ccc2ccccc12`, the TGI with ACHN renal is greater than 100 µM; in the assay with MDA-MB-435 it was greater than 100 µM; with OVCAR-4 ovarian it was greater than 100 µM; with A549 NSCLC, greater than 100 µM; with SW-620 colon, greater than 100 µM; with EKVX NSCLC, 70.7 µM. Moreover, the values for the TGI in the assay on RXF 393 renal, with NCI-H23 lung and in the assay on MDA-MB-231 breast were 9.34 µM, greater than 100 µM and greater than 100 µM, respectively.
With `COc1ccc2c(c1)CCc1cc(OC)ccc1/[N+]([O-])=[N+]\2[O-]`, the TGI in the assay on HL-60(TB) leukemia was 27.6 µM; in the assay with ACHN renal, 26.3 µM; in the assay on MDA-MB-435 it was 32.2 µM; in the assay on A549 NSCLC, greater than 67.6 µM; with SW-620 colon, 26.1 µM; in the assay on EKVX NSCLC, 42.5 µM. In addition, the results for the TGI in the assay with RXF 393 renal, with NCI-H23 lung and in the assay on MDA-MB-231 breast were 12.2 µM, 52.4 µM and 37 µM, respectively.
For the compound `C#CC1(O)C(COP(=O)(O)OCC2OC(n3cc(F)c(=O)[nH]c3=O)CC2O)OC(n2ccc(N)nc2=O)C1O` (configuration not stated), the GI50 with HL-60(TB) leukemia is less than 0.011 µM; with ACHN renal, 0.0469 µM; in the assay with MDA-MB-435 it was less than 0.01 µM; in the assay with A549 NSCLC, less than 0.01 µM; with SW-620 colon it was less than 0.01 µM; in the assay on EKVX NSCLC, 0.529 µM. Moreover, the GI50 is less than 0.0387 µM in the assay with RXF 393 renal, less than 0.0139 µM with NCI-H23 lung and less than 0.0133 µM in the assay with MDA-MB-231 breast. Besides, the TGI is greater than 100 µM with ACHN renal; 0.181 µM in the assay on MDA-MB-435; greater than 100 µM in the assay on A549 NSCLC; greater than 100 µM in the assay with SW-620 colon; greater than 29.8 µM with EKVX NSCLC; 1.48 µM with RXF 393 renal. Moreover, the results for the TGI in the assay with NCI-H23 lung and in the assay with MDA-MB-231 breast were 0.449 µM and 0.315 µM, respectively.
Turning to `CC[C@H](C)[C@H](NC(=O)[C@H]1CCCCN1C)C(=O)N(C)[C@H](C[C@@H](OC(C)=O)c1cccc(C(=O)N[C@@H](Cc2ccccc2)C[C@H](C)C(=O)O)n1)C(C)C`, the GI50 is 0.00111 µM and < 0.0025 µM with HL-60(TB) leukemia; 0.00787 µM and 0.0025 µM in the assay on ACHN renal; 0.000279 µM and < 0.0025 µM in the assay with MDA-MB-435; 0.057 µM and 0.0168 µM in the assay with OVCAR-4 ovarian; 0.000493 µM and 0.0025 µM in the assay on SW-620 colon; 0.00493 µM and 0.0025 µM with EKVX NSCLC. Also, the GI50 in the assay on NCI-H23 lung is 0.00356 µM and 0.0025 µM; in the assay with MDA-MB-231 breast it was 0.00316 µM and 0.0025 µM. Further, the TGI is 0.00592 µM and < 0.0025 µM in the assay on HL-60(TB) leukemia; greater than 25 µM in the assay on ACHN renal; 0.00152 µM and < 0.0025 µM in the assay with MDA-MB-435; greater than 25 µM with OVCAR-4 ovarian; greater than 25 µM with A549 NSCLC; greater than 25 µM in the assay with SW-620 colon. In addition, the TGI in the assay with EKVX NSCLC, with NCI-H23 lung and with MDA-MB-231 breast was greater than 25 µM each time.
Turning to `NCCCNc1nc2ccccc2c2c(=O)c3cccc(Cl)c3sc12`, the GI50 in the assay on ACHN renal was 1.41 µM; with MDA-MB-435 it was 1.73 µM; in the assay with EKVX NSCLC, 1.43 µM; in the assay with RXF 393 renal it was 1.47 µM; in the assay with NCI-H23 lung, 1.4 µM; in the assay with MDA-MB-231 breast it was 1.18 µM. The TGI with ACHN renal is 2.79 µM; in the assay with MDA-MB-435, 3.12 µM; in the assay with EKVX NSCLC, 2.8 µM; in the assay with RXF 393 renal, 2.83 µM; in the assay on NCI-H23 lung, 2.85 µM; in the assay on MDA-MB-231 breast, 2.56 µM.
As for `Cn1cc(C2=C(c3cn(CCCN)c4ccccc34)C(=O)NC2=O)c2ccccc21`, the GI50 is 5.04 µM in the assay on HL-60(TB) leukemia; 5.53 µM in the assay with ACHN renal; 2.66 µM in the assay with MDA-MB-435; 4.22 µM in the assay on OVCAR-4 ovarian; 5.65 µM in the assay on A549 NSCLC; 4.38 µM with SW-620 colon. The GI50 in the assay with RXF 393 renal is 3.4 µM; with NCI-H23 lung, 5.17 µM; in the assay on MDA-MB-231 breast, 6.49 µM. The TGI in the assay on HL-60(TB) leukemia was 11.6 µM; in the assay with ACHN renal, 19.7 µM; in the assay on MDA-MB-435, 6.62 µM; in the assay with OVCAR-4 ovarian, 12.9 µM; in the assay on A549 NSCLC, 17.4 µM; in the assay with SW-620 colon it was 9.37 µM. In addition, the TGI with RXF 393 renal amounted to 7.42 µM; with NCI-H23 lung it was 14.2 µM; in the assay with MDA-MB-231 breast it was 16.7 µM.
As to `O=C1C=C(OCC=C(C(F)(F)F)C(F)(F)F)c2ccccc2C1=O`, the GI50 in the assay with HL-60(TB) leukemia is 2.44 µM; in the assay on ACHN renal, 1.85 µM; with MDA-MB-435, 1.74 µM; in the assay on OVCAR-4 ovarian it was 1.53 µM; in the assay on A549 NSCLC, 5.91 µM; in the assay on SW-620 colon, 1.92 µM. The GI50 was 1.69 µM in the assay with RXF 393 renal and 1.9 µM with MDA-MB-231 breast. Moreover, the TGI in the assay with HL-60(TB) leukemia was 6.49 µM; in the assay on ACHN renal it was 4.01 µM; in the assay with MDA-MB-435, 3.3 µM; with OVCAR-4 ovarian it was 2.91 µM; in the assay on A549 NSCLC, 27 µM; in the assay on SW-620 colon, 3.91 µM. Moreover, the TGI in the assay with RXF 393 renal stood at 3.18 µM; with MDA-MB-231 breast, 4.2 µM.
With `Cc1nc2sc3c(N)ncnc3c2c(C)c1C`, the GI50 in the assay with HL-60(TB) leukemia, with ACHN renal, in the assay with MDA-MB-435, in the assay on OVCAR-4 ovarian, in the assay with A549 NSCLC and in the assay with SW-620 colon was greater than 25 µM each time. Also, the GI50 in the assay with RXF 393 renal, in the assay on NCI-H23 lung and with MDA-MB-231 breast was greater than 25 µM in each case. Moreover, the TGI in the assay with HL-60(TB) leukemia, in the assay with ACHN renal, in the assay with MDA-MB-435, in the assay on OVCAR-4 ovarian, in the assay with A549 NSCLC and with SW-620 colon was greater than 25 µM in each case. Further, the TGI in the assay with RXF 393 renal, in the assay on NCI-H23 lung and with MDA-MB-231 breast was greater than 25 µM in each case.
As for `COc1ccc2c(c1)/C(=C\c1c(-c3cc(OC)ccc3OC)nc3sccn13)C(=O)N2`, the GI50 was 2.37 µM with ACHN renal; 2.05 µM and 14.3 µM in the assay with MDA-MB-435; 1.53 µM in the assay with OVCAR-4 ovarian; 48.6 µM in the assay on A549 NSCLC; 1.77 µM with RXF 393 renal; 1.47 µM with NCI-H23 lung. The GI50 with MDA-MB-231 breast was 3.32 µM. The TGI in the assay with ACHN renal was 9.74 µM; in the assay on MDA-MB-435, 4.6 µM and 39 µM; in the assay with OVCAR-4 ovarian it was 2.87 µM; with A549 NSCLC, greater than 100 µM; in the assay on RXF 393 renal it was 3.93 µM; with NCI-H23 lung, 2.83 µM. In the assay with MDA-MB-231 breast, the TGI amounted to 14.2 µM.
For the compound `O=C(/C=C/c1ccccn1)c1ccc(OCc2nnc(-c3ccc(Cl)cc3)o2)cc1`, the GI50 in the assay on HL-60(TB) leukemia was 2.46 µM; in the assay on ACHN renal, 1.66 µM; with MDA-MB-435 it was 1.71 µM; in the assay on OVCAR-4 ovarian, 3.42 µM; with A549 NSCLC, 2.06 µM; in the assay on SW-620 colon, 1.91 µM. The GI50 in the assay on RXF 393 renal was 1.7 µM; with NCI-H23 lung, 2.13 µM; with MDA-MB-231 breast, 2.27 µM. Further, the TGI with HL-60(TB) leukemia amounted to 7.68 µM; in the assay on ACHN renal it was 3.11 µM; in the assay with MDA-MB-435, 3.6 µM; in the assay with OVCAR-4 ovarian it was 12.4 µM; with A549 NSCLC, 4.82 µM; in the assay with SW-620 colon, 3.93 µM. Moreover, the TGI in the assay with RXF 393 renal was 3.17 µM; in the assay on NCI-H23 lung, 4.58 µM; in the assay with MDA-MB-231 breast, 5.09 µM.
For the compound `[N-]=[N+]=NCCCn1c2c(c3ccc([N+](=O)[O-])cc3c1=O)C(=O)c1cc(-c3ccccc3)ccc1-2`, the GI50 with ACHN renal, in the assay on MDA-MB-435, in the assay on OVCAR-4 ovarian, with A549 NSCLC, with SW-620 colon and in the assay on EKVX NSCLC was greater than 100 µM throughout. Also, the GI50 in the assay with RXF 393 renal, in the assay on NCI-H23 lung and with MDA-MB-231 breast was greater than 100 µM in each case. Moreover, the TGI in the assay with ACHN renal, in the assay on MDA-MB-435, with OVCAR-4 ovarian, with A549 NSCLC, with SW-620 colon and with EKVX NSCLC was greater than 100 µM each time. In addition, the TGI in the assay with RXF 393 renal, in the assay on NCI-H23 lung and with MDA-MB-231 breast was greater than 100 µM in each case.

The values above are taken from PubChem BioAssay (NCI).
